According to patent US20260297042A1, “BIARYLAMIDE DERIVATIVES AND THEIR USE AS PKMYT1 INHIBITORS” (CANCER RESEARCH TECHNOLOGY LIMITED, priority 2023, published 2026):

Columns and labels:
[1] = target: T1, WEE1 (Homo sapiens, UniProt P30291); test: Selectivity versus WEE1 assay (ADP-Glo enzymatic assay); type: biochemical; settings: for IC50: ADP-Glo; for PKMYT1 vs. WEE1 selectivity: fold difference in selectivity for PKMYT1 over WEE1
T1 construct: purchased Thermo Fisher PR7373A
Procedure, shortened: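 ADP-Glo luminescent read-out after a 60-min, 26 °C kinase reaction of 15 nM WEE1 with 30 µM ATP, in HEPES pH 7.5 buffer containing MgCl2, EGTA, Brij-35 and 1% DMSO. IC50 accepted only when replicate values agree within 3-fold and curve fit r2 exceeds 0.9.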

[2] = target: T2, Human PKMYT1 (Homo sapiens, UniProt Q99640); test: PKMYT1 biochemical ADP-Glo enzymatic assay; settings: ADP-Glo
T2 construct: Human PKMYT1 75-362 was cloned as a TEV cleavable 6xHis fusion; 6xHis (TEV cleavable) (cleaved yes); made in house; host or cells: bacterial cells
T2 sequence (Q99640 75-362): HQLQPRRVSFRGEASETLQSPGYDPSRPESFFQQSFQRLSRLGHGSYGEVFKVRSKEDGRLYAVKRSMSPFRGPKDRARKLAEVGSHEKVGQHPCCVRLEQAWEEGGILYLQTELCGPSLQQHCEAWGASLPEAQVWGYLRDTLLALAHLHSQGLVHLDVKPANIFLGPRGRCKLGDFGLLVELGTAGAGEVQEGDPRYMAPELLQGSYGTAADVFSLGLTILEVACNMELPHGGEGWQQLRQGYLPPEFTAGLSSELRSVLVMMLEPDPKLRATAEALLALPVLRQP
Procedure, shortened: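 IC50 values come from 10-point 3-fold series, with replicates required within 3-fold and r2 >0.9. ADP formed by PKMYT1 intrinsic ATPase (500 uM ATP, 60 min, 26° C.) was quantified by ADP-Glo luminescence. The enzyme was the TEV-cleaved kinase domain 75-362 at 15 nM, in HEPES pH 7.5 buffer.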

[3] = 15 nM WEE1, 60 minutes at 26° C., banded
[4] = banded, ">N" = at least in this band but could be higher
[5] = 15 nM PKMYT1 kinase domain, 500 µM ATP, 60 minutes at 26° C., banded
[6] = PKMYT1 kinase domain 15 nM, banded values

T1 sequence (P30291 whole entry): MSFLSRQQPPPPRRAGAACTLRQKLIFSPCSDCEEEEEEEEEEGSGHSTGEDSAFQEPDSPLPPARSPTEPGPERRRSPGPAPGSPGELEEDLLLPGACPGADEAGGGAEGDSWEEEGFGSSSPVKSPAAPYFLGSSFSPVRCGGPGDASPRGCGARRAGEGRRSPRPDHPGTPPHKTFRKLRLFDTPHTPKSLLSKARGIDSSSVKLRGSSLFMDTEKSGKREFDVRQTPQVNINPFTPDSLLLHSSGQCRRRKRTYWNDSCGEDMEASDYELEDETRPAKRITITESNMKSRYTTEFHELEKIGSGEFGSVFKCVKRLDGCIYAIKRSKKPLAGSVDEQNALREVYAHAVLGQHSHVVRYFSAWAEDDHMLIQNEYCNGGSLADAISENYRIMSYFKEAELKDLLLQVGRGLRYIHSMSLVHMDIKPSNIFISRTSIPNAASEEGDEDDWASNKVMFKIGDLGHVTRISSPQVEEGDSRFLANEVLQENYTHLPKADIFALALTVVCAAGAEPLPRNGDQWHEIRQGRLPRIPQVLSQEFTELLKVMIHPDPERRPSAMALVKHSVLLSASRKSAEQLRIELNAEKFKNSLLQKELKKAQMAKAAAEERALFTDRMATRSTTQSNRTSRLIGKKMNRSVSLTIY

Row | Structure (SMILES) | IC50 [1, 3] [nM] | PKMYT1 vs. WEE1 selectivity [1, 4] | IC50 [2, 5] [nM] | IC50 ([1]; WEE1 15 nM, banded values) [nM] | PKMYT1 vs. WEE1 selectivity ([1]; banded) | IC50 [2, 6] [nM]
1 | Cc1ccc(O)c(C)c1NC(=O)c1cnc(Nc2cc(C)n(CCC(N)=O)n2)s1 [BAA-239, 2-((1-(3-amino-3-oxopropyl)-5-methyl-1H-pyrazol-3-yl)amino)-N-(3-hydroxy-2,6-dimethylphenyl)thiazole-5-carboxamide] | 1000 to 11000 | W (10-<100 fold) | 50 to 1000 | – | – | –
2 | Cc1ccc(O)c(C)c1NC(=O)c1cnc(Nc2cc3ccc(O)cn3n2)s1 [BAA-343, N-(3-Hydroxy-2,6-dimethylphenyl)-2-((6-hydroxypyrazolo[1,5-a]pyridin-2-yl)amino)thiazole-5-carboxamide] | 1000 to 11000 | W (10-<100 fold) | 50 to 1000 | – | – | –
3 | Cc1ccc(O)c(C)c1NC(=O)c1cnc(Nc2ccn(CC(=O)N3CCC(F)(F)CC3)n2)s1 [BAA-136, 2-[[1-[2-(4,4-difluoro-1-piperidyl)-2-oxo-ethyl]pyrazol-3-yl]amino]-N-(3-hydroxy-2,6-dimethyl-phenyl)thiazole-5-carboxamide] | > 11000 | Y (1000-5000 fold) | < 50 | – | – | –
4 | Cc1ccc(O)c(C)c1NC(=O)c1cnc(Nc2cc(C(=O)N3CCOCC3)n(C)n2)s1 [BAA-537, N-(3-hydroxy-2,6-dimethylphenyl)-2-((1-methyl-5-(morpholine-4-carbonyl)-1H-pyrazol-3-yl)amino)thiazole-5-carboxamide] | – | – | – | 1000 to 11000 | W (10-<100 fold) | 50 to 1000
5 | Cc1ccc(O)c(C)c1NC(=O)c1cnc(Nc2ccn(CC(=O)N3CC[C@H](O)C3)n2)s1 [BAA-162, N-(3-hydroxy-2,6-dimethyl-phenyl)-2-[1-[2-[(3S)-3-hydroxypyrrolidin-1-yl]-2-oxo-ethyl]pyrazol-3-ylamino]thiazole-5-carboxamide] | > 11000 | Y (1000-5000 fold) | < 50 | – | – | –
6 | Cc1ccc(O)c(C)c1NC(=O)c1cnc(Nc2ncc(C(F)(F)F)o2)s1 [BAA-437, N-(3-hydroxy-2,6-dimethylphenyl)-2-((5-(trifluoromethyl)oxazol-2-yl)amino)thiazole-5-carboxamide] | – | – | – | > 11000 | W (10-<100 fold) | 1000 to 11000
7 | CCc1ccccc1Nc1ncc(C(=O)Nc2c(C)ccc(O)c2C)s1 [BAA-484, 2-((2-ethylphenyl)amino)-N-(3-hydroxy-2,6-dimethylphenyl)thiazole-5-carboxamide] | – | – | – | > 11000 | X (100-<1000 fold) | 50 to 1000
8 | Cc1ccc(O)c(C)c1NC(=O)c1cnc(Nc2ccn(CC(=O)NCC3CCN(C(=O)OC(C)(C)C)CC3)n2)s1 [BAA-157] | > 11000 | X (100-<1000 fold) | 50 to 1000 | – | – | –
9 | CCN(CC)C(=O)c1cc(Nc2ncc(C(=O)Nc3c(C)ccc(O)c3C)s2)nn1C [BAA-545, 2-((5-(diethylcarbamoyl)-1-methyl-1H-pyrazol-3-yl)amino)-N-(3-hydroxy-2,6-dimethylphenyl)thiazole-5-carboxamide] | – | – | – | 1000 to 11000 | W (10-<100 fold) | 50 to 1000
10 | Cc1ccc(O)c(C)c1NC(=O)c1cnc(NCc2cccc(O)c2)s1 [BAA-346, N-(3-hydroxy-2,6-dimethylphenyl)-2-((3-hydroxybenzyl)amino)thiazole-5-carboxamide] | > 11000 | Y (1000-5000 fold) | < 50 | – | – | –
11 | Cc1ccc(O)c(C)c1NC(=O)c1cnc(NCc2nccn2C)s1 [BAA-362, N-(3-hydroxy-2,6-dimethylphenyl)-2-(((1-methyl-1H-imidazol-2-yl)methyl)amino)thiazole-5-carboxamide] | > 11000 | W (10-<100 fold) | 1000 to 11000 | – | – | –
12 | Cc1ccc(O)c(C)c1NC(=O)c1cnc(Nc2c3ccncc3nn2C)s1 [BAA-244, N-(3-hydroxy-2,6-dimethylphenyl)-2-((2-methyl-2H-pyrazolo[3,4-c]pyridin-3-yl)amino)thiazole-5-carboxamide] | 1000 to 11000 | X (100-<1000 fold) | < 50 | – | – | –
13 | Cn1ccc(Nc2ncc(C(=O)Nc3c(F)ccc(O)c3Cl)s2)n1 [BAA-480, N-(2-Chloro-6-fluoro-3-hydroxyphenyl)-2-((1-methyl-1H-pyrazol-3-yl)amino)thiazole-5-carboxamide] | – | – | – | > 11000 | X (100-<1000 fold) | 50 to 1000
14 | Cc1ccc(O)c(C)c1NC(=O)c1cnc(Nc2cc3cc(F)ccc3cn2)s1 [BAA-290, 2-((6-fluoroisoquinolin-3-yl)amino)-N-(3-hydroxy-2,6-dimethylphenyl)thiazole-5-carboxamide] | > 11000 | X (100-<1000 fold) | 50 to 1000 | – | – | –
15 | Cc1ccnc(Nc2ncc(C(=O)Nc3c(C)ccc(O)c3C)s2)n1 [BAA-567, N-(3-hydroxy-2,6-dimethylphenyl)-2-((4-methylpyrimidin-2-yl)amino)thiazole-5-carboxamide] | – | – | – | > 11000 | Y (1000-5000 fold) | < 50
16 | Cc1ccc(O)c(C)c1NC(=O)c1cnc(Nc2cnn(C)c2C)s1 [BAA-520, 2-((1,5-dimethyl-1H-pyrazol-4-yl)amino)-N-(3-hydroxy-2,6-dimethylphenyl)thiazole-5-carboxamide] | – | – | – | > 11000 | X (100-<1000 fold) | 50 to 1000
17 | Cc1cc(Nc2ccc(F)cc2)nnc1Nc1ncc(C(=O)Nc2c(C)ccc(O)c2C)s1 [BAA-324, 2-((6-((4-fluorophenyl)amino)-4-methylpyridazin-3-yl)amino)-N-(3-hydroxy-2,6-dimethylphenyl)thiazole-5-carboxamide] | > 11000 | X (100-<1000 fold) | 50 to 1000 | – | – | –
18 | Cc1ccc(O)c(C)c1NC(=O)c1cnc(Nc2nn(C)cc2-c2ccccc2)s1 [BAA-373, N-(3-hydroxy-2,6-dimethylphenyl)-2-((1-methyl-4-phenyl-1H-pyrazol-3-yl)amino)thiazole-5-carboxamide] | > 11000 | X (100-<1000 fold) | 50 to 1000 | – | – | –
19 | Cc1ccc(O)c(C)c1NC(=O)c1cnc(Nc2ccn([C@@H]3CCN(CCc4ccccc4)C3)n2)s1 [BAA-115] | > 11000 | >X (100-<1000 fold) | 50 to 1000 | – | – | –
20 | Cc1cn(C(C)C(=O)N2CCN(C)CC2)nc1Nc1ncc(C(=O)Nc2c(C)ccc(O)c2C)s1 (stereo not drawn) [BAA-500, N-(3-hydroxy-2,6-dimethylphenyl)-2-((4-methyl-1-(1-(4-methylpiperazin-1-yl)-1-oxopropan-2-yl)-1H-pyrazol-3-yl)amino)thiazole-5-carboxamide] | – | – | – | > 11000 | X (100-<1000 fold) | < 50
21 | Cc1ccc(O)c(C)c1NC(=O)c1cnc(Nc2ccn([C@@H]3CCN(C(=O)Cc4ccccc4)C3)n2)s1 [BAA-083] | > 11000 | >Y (1000-5000 fold) | 50 to 1000 | – | – | –
22 | Cc1ccc(O)c(C)c1NC(=O)c1cnc(NCC2CCN(C(=O)CC(C)(C)O)CC2)s1 [BAA-215, N-(3-hydroxy-2,6-dimethyl-phenyl)-2-[[1-(3-hydroxy-3-methyl-butanoyl)-4-piperidyl]methylamino]thiazole-5-carboxamide] | > 11000 | >X (100-<1000 fold) | 50 to 1000 | – | – | –
23 | Cc1cn(C2CN(C(=O)OC(C)(C)C)C2)nc1Nc1ncc(C(=O)Nc2c(C)ccc(O)c2C)s1 [BAA-272, tert-butyl 3-(3-((5-((3-hydroxy-2,6-dimethylphenyl)carbamoyl)thiazol-2-yl)amino)-4-methyl-1H-pyrazol-1-yl)azetidine-1-carboxylate] | 50 to 1000 | W (10-<100 fold) | < 50 | – | – | –
24 | Cc1cn(C)nc1Nc1nnc(C(=O)Nc2c(C)ccc(O)c2C)s1 [BAA-465, 5-((1,4-dimethyl-1H-pyrazol-3-yl)amino)-N-(3-hydroxy-2,6-dimethylphenyl)-1,3,4-thiadiazole-2-carboxamide] | – | – | – | > 11000 | Y (1000-5000 fold) | < 50
25 | CNc1ncc(C(=O)Nc2c(C)ccc(O)c2C)s1 [BAA-221, N-(3-Hydroxy-2,6-dimethyl-phenyl)-2-(methylamino)thiazole-5-carboxamide] | > 11000 | X (100-<1000 fold) | 50 to 1000 | – | – | –
26 | COCCNC(=O)Cn1ccc(Nc2ncc(C(=O)Nc3c(C)ccc(O)c3C)s2)n1 [BAA-166, N-(3-hydroxy-2,6-dimethyl-phenyl)-2-[[1-[2-(2-methoxyethylamino)-2-oxo-ethyl]pyrazol-3-yl]amino]thiazole-5-carboxamide] | > 11000 | Y (1000-5000 fold) | < 50 | – | – | –
